Common to all, as to type: cell-based
One test deals with MV-4-11 cells. Nature of the test: AML cell viability assay (RealTime-Glo). The settings on record: Homo sapiens, read-out: Cell viability classification.
Test [1] concerns the target T1, CK1α (Homo sapiens, UniProt P48729+Q96SW2). The test is described as follows: CK1α degradation, Jess assay in MV-4-11 cells. More on the design: CK1α levels were determined in MV-4-11 cells using Jess (Protein Simple); host or cells: MV-4-11; dose or concentration left out as unconfirmed. The settings on record: MV4-11, % reduction of CK1α compared to DMSO, MV-4-11 cells for 16 hours, normalized to β-actin, read-out: CK1α degradation classification. On the procedure: MM.1S and NCCIT cells were obtained from ATCC and grown in RPMI-1640 supplemented with 10% FBS. MV-4-11 cells were obtained from ATCC and grown in IMDM supplemented with 10% FBS. The cells were maintained at 37° C. under 5% CO2.
Compounds of the present disclosure was added to cells (final DMSO concentration of 0.1%) and incubated for 16 hours. CK1α levels were determined in MV-4-11 cells using Jess (Protein Simple). Briefly, whole cell lysates were prepared in lysis buffer (1×RIPA buffer [Thermo, 89900], 2 mM MgCl2 [Sigma, M1028], 0.05% Benzonase [Sigma, E1014], 1× Pierce protease inhibitor tablets EDTA-free [Thermo, A32965]). 6-20 μg of the lysates were analyzed using Jess with antibodies against CK1α (Abcam, ab108296) and β-actin (R&D Systems, MAB8929). Protein levels were normalized to β-actin levels. DC50 values were obtained using four-parameter non-linear regressions using Prism (GraphPad).
The efficacy of CK1α degradation of a part of compounds of the present disclosure was determined by treating MV-4-11 cells at […] (final DMSO concentration of 0.1%) for 16 hours. CK1α levels were determined using Jess and normalized to β-actin levels. The compounds are classified based on amount of CK1α degradation (% reduction of CK1α compared to DMSO) as follows. • A: Degradation is greater than or equal to 75%; • B: Degradation is less than […] & greater than or equal to 50%; • C: Degradation is less than […]; • ND: not determined.

In test [2] the target is T1, CK1α. The test is described as follows: CK1α HiBiT assay in CK1a_HiBiT_Jurkat cells. To be noted: DC50 class, 16 hours, Nano-Glo HiBiT Lytic Detection, read-out: CK1α degradation classification. On the procedure: CK1a_HiBiT_Jurkat cells were culture in RPMI 1640 medium (Gibco, 11875093) with 10% FBS under standard tissue culture conditions. Briefly, Compounds of the present disclosure was added to 30,000 cells in a white 96-well plate (9-point dose response, top concentration […], half-log serial dilution, final DMSO concentration 0.5%) and incubated for 16 hours. CK1a level was determined in along with the Nano-Glo HiBiT Lytic Detection system [Promega N3050] with final concentration of 1 x. The luminescence was normalized to that of DMSO-treated samples. DC50 values were obtained using three-parameter non-linear regressions using Prism (GraphPad). The compounds are classified based on DC50 values as follows. • A: DC50 is less than or equal to 1×10^−7; • B: DC50 is greater than 1×10^−7 & less than or equal to 1×10^−6; • C: DC50 is greater than 1×10^−6; • NA: not calculated (no activity detected, <25% viability reduction at 1 uM)
(In general: With HiBiT, luminescence reflects the tagged protein that the partner subunit can reach.)

Setting [3] is: MV4-11, IC50 class, MV-4-11 cells, RealTime-Glo after 44 hrs of treatment (TABLE 1).

Structures are written as SMILES. Counter-ions that a name gives are not always drawn. Like-named read-outs stand apart in the source and are kept apart here.

T1 sequence (P48729 whole entry): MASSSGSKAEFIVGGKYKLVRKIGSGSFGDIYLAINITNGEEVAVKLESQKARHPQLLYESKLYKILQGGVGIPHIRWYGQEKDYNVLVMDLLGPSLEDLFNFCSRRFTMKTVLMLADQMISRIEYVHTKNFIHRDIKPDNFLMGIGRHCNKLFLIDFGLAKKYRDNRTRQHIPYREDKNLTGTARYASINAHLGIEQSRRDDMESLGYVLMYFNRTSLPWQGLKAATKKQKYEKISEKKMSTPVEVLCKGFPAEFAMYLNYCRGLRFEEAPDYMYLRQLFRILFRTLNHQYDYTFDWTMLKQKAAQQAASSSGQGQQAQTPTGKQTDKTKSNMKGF
T1 sequence (Q96SW2 whole entry): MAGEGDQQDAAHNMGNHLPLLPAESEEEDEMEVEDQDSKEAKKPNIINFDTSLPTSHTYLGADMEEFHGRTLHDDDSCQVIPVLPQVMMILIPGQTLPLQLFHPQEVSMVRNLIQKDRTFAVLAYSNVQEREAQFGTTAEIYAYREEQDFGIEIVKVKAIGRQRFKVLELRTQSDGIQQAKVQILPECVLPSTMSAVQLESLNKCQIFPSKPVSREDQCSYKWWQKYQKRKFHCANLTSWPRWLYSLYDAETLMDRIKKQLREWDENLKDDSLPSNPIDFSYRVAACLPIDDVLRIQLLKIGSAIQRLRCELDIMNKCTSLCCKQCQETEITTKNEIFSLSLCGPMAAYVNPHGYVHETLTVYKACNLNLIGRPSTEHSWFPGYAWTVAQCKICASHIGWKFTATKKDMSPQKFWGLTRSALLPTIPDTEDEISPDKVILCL
T1 sequence (Q16531 whole entry partner): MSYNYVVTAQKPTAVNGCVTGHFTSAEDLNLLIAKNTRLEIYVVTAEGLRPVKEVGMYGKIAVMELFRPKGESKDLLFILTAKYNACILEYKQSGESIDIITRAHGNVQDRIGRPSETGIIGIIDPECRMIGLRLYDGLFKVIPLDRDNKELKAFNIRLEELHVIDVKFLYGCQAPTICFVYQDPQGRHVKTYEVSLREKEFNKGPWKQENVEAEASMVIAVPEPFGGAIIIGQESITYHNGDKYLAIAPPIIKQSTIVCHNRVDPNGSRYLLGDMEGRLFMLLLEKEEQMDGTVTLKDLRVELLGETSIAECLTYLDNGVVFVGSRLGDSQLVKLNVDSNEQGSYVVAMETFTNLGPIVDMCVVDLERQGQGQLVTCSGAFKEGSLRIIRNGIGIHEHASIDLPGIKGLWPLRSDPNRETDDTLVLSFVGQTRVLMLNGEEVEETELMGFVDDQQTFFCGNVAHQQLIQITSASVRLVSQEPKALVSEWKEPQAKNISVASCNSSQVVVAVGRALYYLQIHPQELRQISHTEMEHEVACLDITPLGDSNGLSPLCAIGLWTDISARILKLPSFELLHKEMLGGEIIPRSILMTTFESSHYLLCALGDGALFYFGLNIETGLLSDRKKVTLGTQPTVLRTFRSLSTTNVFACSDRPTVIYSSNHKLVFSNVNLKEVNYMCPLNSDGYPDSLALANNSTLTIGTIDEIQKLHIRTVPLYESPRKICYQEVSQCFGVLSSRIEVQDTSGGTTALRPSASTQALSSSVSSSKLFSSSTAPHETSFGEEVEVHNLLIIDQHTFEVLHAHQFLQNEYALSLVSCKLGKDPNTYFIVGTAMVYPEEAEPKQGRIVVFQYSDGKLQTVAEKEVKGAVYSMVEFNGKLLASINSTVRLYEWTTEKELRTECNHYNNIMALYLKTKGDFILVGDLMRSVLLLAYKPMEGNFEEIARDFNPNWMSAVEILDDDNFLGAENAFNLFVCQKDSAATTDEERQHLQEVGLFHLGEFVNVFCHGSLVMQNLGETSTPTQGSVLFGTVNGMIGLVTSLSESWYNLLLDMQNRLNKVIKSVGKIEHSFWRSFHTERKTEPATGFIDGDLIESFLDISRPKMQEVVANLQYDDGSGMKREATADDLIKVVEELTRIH

For `CCCN(CCCCN)c1cccc2c1CN(C1CCC(=O)NC1=O)C2=O` (centres unmarked) [Compound 4, 3-(4-((4-aminobutyl)(propyl)amino)-1-oxoisoindolin-2-yl)piperidine-2,6-dione], the IC50 in the test with MV-4-11 cells (setting [3]) is less than 100 nM. For the same molecule, the Dmax on CK1α [1] was greater than 75%.
For the molecule `CCCCN(CCCCN)c1cccc2c1CN(C1CCC(=O)NC1=O)C2=O` (centres unmarked) [Compound 46, 3-(4-((4-aminobutyl)(butyl)amino)-1-oxoisoindolin-2-yl)piperidine-2,6-dione], the IC50 in the test on MV-4-11 cells (setting [3]) was less than 100 nM. For the same molecule, on CK1α [1], the Dmax is greater than 75%.
For `CCCCCN(CCCCN)c1cccc2c1CN(C1CCC(=O)NC1=O)C2=O` (centres unmarked) [Compound 47, 3-(4-((4-aminobutyl)(pentyl)amino)-1-oxoisoindolin-2-yl)piperidine-2,6-dione], in the test on MV-4-11 cells (MV4-11, 44 h), the IC50 is less than 100 nM. Further, the Dmax at CK1α [1] was greater than 75%.
As to `CCCCCCN(CCCCN)c1cccc2c1CN(C1CCC(=O)NC1=O)C2=O` (centres unmarked) [Compound 48, 3-(4-((4-aminobutyl)(hexyl)amino)-1-oxoisoindolin-2-yl)piperidine-2,6-dione], in the test with MV-4-11 cells (setting [3]), the IC50 was less than 100 nM. Besides, the Dmax on CK1α [1] is greater than 75%.
Take `CCCN(CCCCNC(C)=O)c1cccc2c1CN(C1CCC(=O)NC1=O)C2=O` (centres unmarked) [Compound 50, N-(4-((2-(2,6-dioxopiperidin-3-yl)-1-oxoisoindolin-4-yl)(propyl)amino)butyl)acetamide]: the IC50 with MV-4-11 cells (setting [3]) was less than 100 nM. The Dmax on CK1α [1] is greater than 75%.
Consider `NCCCCN(CCCCCO)c1cccc2c1CN(C1CCC(=O)NC1=O)C2=O` (centres unmarked) [Compound 51, 3-(4-((4-aminobutyl)(5-hydroxypentyl)amino)-1-oxoisoindolin-2-yl)piperidine-2,6-dione], for which the IC50 in the test on MV-4-11 cells (setting [3]) is 100 to 1000 nM. For the same molecule, on CK1α [1], the Dmax lay in the range of 50 to 7500%.
Turning to `CC(C)CCCCCN(CCCCN)c1cccc2c1CN(C1CCC(=O)NC1=O)C2=O` (centres unmarked) [Compound 52, 3-(4-((4-aminobutyl)(6-methylheptyl)amino)-1-oxoisoindolin-2-yl)piperidine-2,6-dione], in the test with MV-4-11 cells (setting [3]), the IC50 was in the range of 100 to 1000 nM. At CK1α [1], the Dmax is greater than 75%.
Regarding `NCCCCCN(CCCCN)c1cccc2c1CN(C1CCC(=O)NC1=O)C2=O` (centres unmarked) [Compound 55, 3-(4-((4-aminobutyl)(5-aminopentyl)amino)-1-oxoisoindolin-2-yl)piperidine-2,6-dione dihydrochloride], the IC50 in the test on MV-4-11 cells (setting [3]) was 100 to 1000 nM. Besides, the Dmax at CK1α [1] was greater than 75%.
Regarding `NCCCCN(CCCCCCO)c1cccc2c1CN(C1CCC(=O)NC1=O)C2=O` (centres unmarked) [Compound 56, 3-(4-((4-aminobutyl)(6-hydroxyhexyl)amino)-1-oxoisoindolin-2-yl)piperidine-2,6-dione], the IC50 with MV-4-11 cells (setting [3]) was 100 to 1000 nM. In addition, on CK1α [1], the Dmax lay within 50 to 7500%.
Regarding `CCCN(CCCCCN)c1cccc2c1CN(C1CCC(=O)NC1=O)C2=O` (centres unmarked) [Compound 57, 3-(4-((5-aminopentyl)(propyl)amino)-1-oxoisoindolin-2-yl)piperidine-2,6-dione], the IC50 with MV-4-11 cells (setting [3]) is less than 100 nM. Besides, the Dmax on CK1α [1] is greater than 75%.
For the molecule `NCCCCCCN(CCCCN)c1cccc2c1CN(C1CCC(=O)NC1=O)C2=O` (centres unmarked) [Compound 60, 3-(4-((4-aminobutyl)(6-aminohexyl)amino)-1-oxoisoindolin-2-yl)piperidine-2,6-dione], in the test on MV-4-11 cells (setting [3]), the IC50 was less than 100 nM. The Dmax on CK1α [1] was greater than 75%.
As to `CCCN(CCCCC(=O)NC)c1cccc2c1CN(C1CCC(=O)NC1=O)C2=O` (centres unmarked) [Compound 63, 5-((2-(2,6-dioxopiperidin-3-yl)-1-oxoisoindolin-4-yl)(propyl)amino)-N-methylpentanamide], the IC50 in the test with MV-4-11 cells (setting [3]) was less than 100 nM. Further, the Dmax on CK1α [1] is greater than 75%.
The matching figures for `CCCCN(C/C=C/CN)c1cccc2c1CN(C1CCC(=O)NC1=O)C2=O` (centres unmarked) [Compound 66, (E)-3-(4-((4-aminobut-2-en-1-yl)(butyl)amino)-1-oxoisoindolin-2-yl)piperidine-2,6-dione]: 100 to 1000 nM and 50 to 7500%.
Turning to `CCCCN(C/C=C\CN)c1cccc2c1CN(C1CCC(=O)NC1=O)C2=O` (centres unmarked) [Compound 67, (Z)-3-(4-((4-aminobut-2-en-1-yl)(butyl)amino)-1-oxoisoindolin-2-yl)piperidine-2,6-dione], the IC50 in the test on MV-4-11 cells (setting [3]) is less than 100 nM. Also, the Dmax on CK1α [1] is greater than 75%.
As for `C/C=C/CN(CCCCN)c1cccc2c1CN(C1CCC(=O)NC1=O)C2=O` (centres unmarked) [Compound 68, (E)-3-(4-((4-aminobutyl)(but-2-en-1-yl)amino)-1-oxoisoindolin-2-yl)piperidine-2,6-dione], the IC50 in the test with MV-4-11 cells (setting [3]) is less than 100 nM. Further, at CK1α [1], the Dmax is greater than 75%.
For `C/C=C\CN(CCCCN)c1cccc2c1CN(C1CCC(=O)NC1=O)C2=O` (centres unmarked) [Compound 69, (Z)-3-(4-((4-aminobutyl)(but-2-en-1-yl)amino)-1-oxoisoindolin-2-yl)piperidine-2,6-dione], the IC50 with MV-4-11 cells (setting [3]) was in the range of 100 to 1000 nM. For the same molecule, the Dmax on CK1α [1] was 50 to 7500%.
Consider `CCCCCN(CCCCNC)c1cccc2c1CN(C1CCC(=O)NC1=O)C2=O` (centres unmarked) [Compound 80, 3-(4-((4-(methylamino)butyl)(pentyl)amino)-1-oxoisoindolin-2-yl)piperidine-2,6-dione.Hydrochloride], for which the IC50 with MV-4-11 cells (setting [3]) is less than 100 nM. Also, the Dmax on CK1α [1] is greater than 75%.
Consider `CCCCCN(CCCCNC(C)=O)c1cccc2c1CN(C1CCC(=O)NC1=O)C2=O` (centres unmarked) [Compound 82, N-(4-((2-(2,6-dioxopiperidin-3-yl)-1-oxoisoindolin-4-yl)(pentyl)amino)butyl)acetamide], for which the IC50 in the test with MV-4-11 cells (setting [3]) was less than 100 nM. In addition, at CK1α [1], the Dmax was in the range of 50 to 7500%.
As to `CCCCCN(c1cccc2c1CN(C1CCC(=O)NC1=O)C2=O)[C@H]1CC[C@@H](N)CC1` (stereo partly drawn) [Compound 87, 3-(4-(((1S,4S)-4-aminocyclohexyl)(pentyl)amino)-1-oxoisoindolin-2-yl)piperidine-2,6-dione hydrochloride], the IC50 with MV-4-11 cells (setting [3]) is less than 100 nM. Further, the Dmax at CK1α [1] is greater than 75%.
The matching figures for `CCCCCN(c1cccc2c1CN(C1CCC(=O)NC1=O)C2=O)[C@H]1CC[C@H](N)CC1` (some centres unmarked) [Compound 88, 3-(4-(((1r,4r)-4-aminocyclohexyl)(pentyl)amino)-1-oxoisoindolin-2-yl)piperidine-2,6-dione, HCl]: less than 100 nM and greater than 75%.
In the case of `CCCCCN(c1cccc2c1CN(C1CCC(=O)NC1=O)C2=O)[C@H]1CC[C@@H](CN)CC1` (stereo partly drawn) [Compound 89, 3-(4-(((1S,4S)-4-(aminomethyl)cyclohexyl)(pentyl)amino)-1-oxoisoindolin-2-yl)piperidine-2,6-dione hydrochloride], in the test with MV-4-11 cells (setting [3]), the IC50 is less than 100 nM. The Dmax at CK1α [1] was greater than 75%.
As for `CCCCCN(c1cccc2c1CN(C1CCC(=O)NC1=O)C2=O)[C@H]1CC[C@H](CN)CC1` (stereo partly drawn) [Compound 90, 3-(4-(((1R,4R)-4-(aminomethyl)cyclohexyl)(pentyl)amino)-1-oxoisoindolin-2-yl)piperidine-2,6-dione hydrochloride], the IC50 in the test on MV-4-11 cells (setting [3]) is less than 100 nM. The Dmax on CK1α [1] is greater than 75%.
`CCCCN(CC#CCN)c1cccc2c1CN(C1CCC(=O)NC1=O)C2=O` (centres unmarked) [Compound 115, 3-(4-((4-aminobut-2-yn-1-yl)(butyl)amino)-1-oxoisoindolin-2-yl)piperidine-2,6-dione]: the IC50 in the test with MV-4-11 cells (setting [3]) is greater than 1000 nM. Also, the Dmax at CK1α [1] fell in the range of 50 to 7500%.
For the molecule `CC#CCN(CCCCN)c1cccc2c1CN(C1CCC(=O)NC1=O)C2=O` (centres unmarked) [Compound 116, 3-(4-((4-aminobutyl)(but-2-yn-1-yl)amino)-1-oxoisoindolin-2-yl)piperidine-2,6-dione], the IC50 with MV-4-11 cells (setting [3]) is less than 100 nM. For the same molecule, the Dmax at CK1α [1] was greater than 75%.
With `O=C1CCC(N2Cc3c(cccc3N(CCC3CC3)[C@H]3CC[C@H](N4CCC(F)(F)CC4)CC3)C2=O)C(=O)N1` (some centres unmarked) [Compound 716, 3-(4-((2-cyclopropylethyl)((1r,4r)-4-(4,4-difluoropiperidin-1-yl)cyclohexyl)amino)-1-oxoisoindolin-2-yl)piperidine-2,6-dione 2,2,2-trifluoroacetate], the IC50 in the test on MV-4-11 cells (MV4-11, IC50 class, MV-4-11 cells, RealTime-Glo after 44 hrs of treatment (TABLE 5)) was in the range of 100 to 1000 nM. In addition, the DC50 on CK1α [2] was no more than 100 nM.

Source of the values: patent US20250188069A1, “COMPOUNDS AND METHODS FOR DEGRADING CASEIN KINASE 1 ALPHA” (PIN THERAPEUTICS, INC., priority 2022, published 2025).
